Source: PubChem BioAssay (NCI)
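All cell lines were grown in 96-well plates and treated with compound for 48 hours. GI50 is the concentration that inhibits growth by half. At the TGI there is no net growth.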

Key:
Assay in all cases: DTP human tumour cell line panel, 48 h
[1] = test system: ACHN renal
[2] = test system: BT-549 breast
[3] = test system: COLO 205 colon
[4] = test system: DU-145 prostate
[5] = test system: HCC-2998 colon
[6] = test system: HCT-15 colon
[7] = test system: HOP-92 NSCLC
[8] = test system: M14 melanoma
[9] = test system: MDA-MB-231 breast
[10] = test system: MDA-MB-435
[11] = test system: NCI-H23 lung
[12] = test system: NCI-H460 lung
[13] = test system: NCI/ADR-RES ovarian
[14] = test system: OVCAR-3 ovarian
[15] = test system: OVCAR-4 ovarian
[16] = test system: OVCAR-5 ovarian
[17] = test system: RXF 393 renal
[18] = test system: SF-539 CNS
[19] = test system: SK-MEL-2 melanoma
[20] = test system: SK-MEL-28 melanoma
[21] = test system: SK-MEL-5 melanoma
[22] = test system: SN12C renal
[23] = test system: SNB-75 CNS
[24] = test system: TK-10 renal
[25] = test system: UACC-257 melanoma
[26] = test system: UACC-62 melanoma
[27] = test system: UO-31 renal
[28] = test system: 786-0 renal
[29] = test system: A498 renal
[30] = test system: A549 NSCLC
[31] = test system: CAKI-1 renal
[32] = test system: CCRF-CEM leukemia
[33] = test system: EKVX NSCLC
[34] = test system: HCT-116 colon
[35] = test system: HL-60(TB) leukemia
[36] = test system: HOP-62 NSCLC
[37] = test system: HS 578T breast
[38] = test system: HT29 colon
[39] = test system: IGROV1 ovarian
[40] = test system: K-562 leukemia
[41] = test system: KM12 colon
[42] = test system: LOX IMVI melanoma
[43] = test system: MALME-3M melanoma
[44] = test system: MCF7 breast
[45] = test system: MOLT-4 leukemia
[46] = test system: NCI-H522 lung
[47] = test system: OVCAR-8 ovarian
[48] = test system: PC-3 prostate
[49] = test system: RPMI-8226 leukemia
[50] = test system: SF-268 CNS
[51] = test system: SF-295 CNS
[52] = test system: SK-OV-3 ovarian
[53] = test system: SNB-19 CNS
[54] = test system: SR leukemia
[55] = test system: SW-620 colon
[56] = test system: T-47D breast
[57] = test system: U251 CNS

Work on `C[C@H](C(=O)N[C@@H](Cc1ccc(-c2ccccc2)cc1)C(=O)NC1CC(C)(C)N(C)C(C)(C)C1)c1ccc(-c2ccccc2)c(F)c1` yielded a GI50 [1] of 1.62 µM, a TGI [1] of 3.05 µM and a GI50 [2] of 1.62 µM. It also gave a TGI [2] of 3.25 µM, a GI50 [3] of 1.37 µM and a TGI [3] of 2.87 µM. The GI50 [4] was 1.58 µM, the TGI [4] was 3 µM and the GI50 [5] was 1.74 µM. For the same molecule, the TGI [5] was 3.42 µM, the GI50 [6] was 1.53 µM and the TGI [6] was 2.94 µM. It also gave a GI50 [7] of 1.26 µM, a TGI [7] of 2.7 µM and a GI50 [8] of 1.74 µM. The TGI [8] was 3.39 µM, the GI50 [9] was 1.49 µM and the TGI [9] was 3.02 µM. It also gave a GI50 [10] of 1.29 µM, a TGI [10] of 2.56 µM and a GI50 [11] of 1.54 µM. The TGI [11] was 3.08 µM, the GI50 [12] was 1.06 µM and the TGI [12] was 2.43 µM. It also gave a GI50 [13] of 1.77 µM, a TGI [13] of 4.19 µM and a GI50 [14] of 1.19 µM. It also gave a TGI [14] of 2.56 µM, a GI50 [15] of 0.818 µM and a TGI [15] of 2.84 µM. It also gave a GI50 [16] of 1.46 µM, a TGI [16] of 3 µM and a GI50 [17] of 0.884 µM. For the same molecule, the TGI [17] was 2.28 µM, the GI50 [18] was 1.56 µM and the TGI [18] was 3.03 µM. The GI50 [19] was 1.61 µM, the TGI [19] was 3.55 µM and the GI50 [20] was 1.67 µM. For the same molecule, the TGI [20] was 3.18 µM, the GI50 [21] was 1.59 µM and the TGI [21] was 2.94 µM. The GI50 [22] was 1.31 µM, the TGI [22] was 2.77 µM and the GI50 [23] was 1.35 µM. It also gave a TGI [23] of 3.74 µM, a GI50 [24] of 1.75 µM and a TGI [24] of 3.32 µM. For the same molecule, the GI50 [25] was 2.12 µM, the TGI [25] was 3.8 µM and the GI50 [26] was 1.92 µM. It also gave a TGI [26] of 3.63 µM, a GI50 [27] of 1.27 µM and a TGI [27] of 2.64 µM.

Molecule `FC(F)(F)c1[nH]ncc1-c1nc2c(N3CCCCC3)cc3[nH]ncc3c2c2c1CCCC2` has a GI50 [28] of 0.905 µM, a TGI [28] of 2.93 µM and a GI50 [29] of 0.0566 µM. It also gave a TGI [29] of 0.196 µM, a GI50 [30] of 0.816 µM and a TGI [30] greater than 12.5 µM. It also gave a GI50 [1] of 0.498 µM, a TGI [1] greater than 28 µM and a GI50 [2] of 0.643 µM. It also gave a TGI [2] of 1.37 µM, a GI50 [31] of 0.711 µM and a TGI [31] of 3.06 µM. The GI50 [32] was 1.14 µM, the TGI [32] was greater than 50 µM and the GI50 [4] was 0.702 µM. It also gave a TGI [4] greater than 13 µM, a GI50 [33] of 0.868 µM and a TGI [33] of 2.48 µM. It also gave a GI50 [5] of 0.929 µM, a TGI [5] of 3.06 µM and a GI50 [34] of 0.432 µM. The TGI [34] was 3.57 µM, the GI50 [6] was 1.07 µM and the TGI [6] was greater than 16.5 µM. For the same molecule, the GI50 [35] was 1.23 µM, the TGI [35] was 3.32 µM and the GI50 [36] was 0.699 µM. For the same molecule, the TGI [36] was 3.12 µM, the GI50 [7] was 0.29 µM and the TGI [7] was 1.62 µM. The GI50 [37] was 0.603 µM, the TGI [37] was 2 µM and the GI50 [38] was 1.3 µM. The TGI [38] was greater than 50 µM, the GI50 [39] was 0.556 µM and the TGI [39] was 3.66 µM. For the same molecule, the GI50 [40] was 1.04 µM, the TGI [40] was greater than 50 µM and the GI50 [41] was 0.793 µM. It also gave a TGI [41] of 7.95 µM, a GI50 [42] of 0.656 µM and a TGI [42] of 1.43 µM. For the same molecule, the GI50 [8] was 0.6 µM, the TGI [8] was 1.42 µM and the GI50 [43] was 0.843 µM. It also gave a TGI [43] of 2.14 µM, a GI50 [44] of 0.514 µM and a TGI [44] greater than 15.4 µM. It also gave a GI50 [9] of 0.806 µM, a TGI [9] of 3.08 µM and a GI50 [10] of 0.741 µM. For the same molecule, the TGI [10] was 2.19 µM, the GI50 [45] was 0.744 µM and the TGI [45] was 2.78 µM. It also gave a GI50 [11] of 0.791 µM, a TGI [11] of 2.99 µM and a GI50 [12] of 0.49 µM. For the same molecule, the TGI [12] was 1.9 µM, the GI50 [46] was 0.485 µM and the TGI [46] was 3.24 µM. The GI50 [13] was 2.04 µM, the TGI [13] was greater than 50 µM and the GI50 [14] was 1.07 µM. It also gave a TGI [14] of 3.14 µM, a GI50 [15] of 1.42 µM and a TGI [15] greater than 15.3 µM. It also gave a GI50 [16] of 1.04 µM, a TGI [16] of 3.61 µM and a GI50 [47] of 0.825 µM. For the same molecule, the TGI [47] was greater than 50 µM, the GI50 [48] was 0.91 µM and the TGI [48] was greater than 13.8 µM. It also gave a GI50 [49] of 0.534 µM, a TGI [49] of 2.44 µM and a GI50 [17] of 0.395 µM. It also gave a TGI [17] of 1.07 µM, a GI50 [50] of 0.786 µM and a TGI [50] of 1.97 µM. It also gave a GI50 [51] of 0.857 µM, a TGI [51] of 3.16 µM and a GI50 [18] of 0.567 µM. For the same molecule, the TGI [18] was 1.22 µM, the GI50 [19] was 0.968 µM and the TGI [19] was 2.31 µM. It also gave a GI50 [20] of 0.617 µM, a TGI [20] of 1.78 µM and a GI50 [21] of 0.637 µM. For the same molecule, the TGI [21] was 1.5 µM, the GI50 [52] was 0.523 µM and the TGI [52] was 4.22 µM. It also gave a GI50 [22] of 0.878 µM, a TGI [22] greater than 15.7 µM and a GI50 [53] of 1.25 µM. It also gave a TGI [53] greater than 16.5 µM, a GI50 [23] of 0.533 µM and a TGI [23] of 1.2 µM. It also gave a GI50 [54] of 0.235 µM, a TGI [54] greater than 50 µM and a GI50 [55] of 0.556 µM. For the same molecule, the TGI [55] was 2.67 µM, the GI50 [56] was 0.756 µM and the TGI [56] was greater than 13.7 µM. It also gave a GI50 [24] of 0.615 µM, a TGI [24] greater than 50 µM and a GI50 [57] of 0.87 µM. For the same molecule, the TGI [57] was 5.67 µM, the GI50 [25] was 1.09 µM and the TGI [25] was 3.58 µM. For the same molecule, the GI50 [26] was 0.391 µM, the TGI [26] was 1.41 µM and the GI50 [27] was 0.873 µM. It also gave a TGI [27] of 3.01 µM.
